Data taken from patent US11753445B2, “Therapeutic peptides” (COHBAR, INC., priority 2016, dated 2023).
Peptide text beside a SMILES is read from it.

test system: 3T3-L1 Adipocytes; assay: Free fatty acid levels in cultured mouse 3T3-L1 adipocytes, isoproterenol stimulated (Example 2); assay type: cell-based; settings: test peptides 25 μM; isoproterenol 1 nM
Description: Mouse 3T3-L1 cells were seeded at a density between 1,000-20,000 cells per well on 96-well, 48-well, or 24-well plates in Pre-adipocyte Medium (Zen-Bio, Durham, N.C.) and grown to confluence at 37° C. in a humidified atmosphere of 5% CO2/95% air. Two days after confluence, cells were placed in Adipocyte Differentiation Medium (Zen-Bio, Durham, N.C.) and cultured for three additional days at 37° C. in a humidified atmosphere of 5% CO2/95% air. The culture media was then replaced with Adipocyte Maintenance Medium (Zen-Bio) and the cells were maintained for an additional 9-14 days at 37° C. in a humidified atmosphere of 5% CO2/95% air with partial medium replacement every other day. Following 12-17 days of differentiation, test peptides were added at a final concentration of 25 μM and incubated for 18-20 hours in Adipocyte Maintenance Medium at 37° C. in a humidified atmosphere of 5% CO2/95%. After 18-20 hours, the media was exchanged with fresh Adipocyte Maintenance Medium containing test peptides and incubated for 1 h at 37° C. in a humidified atmosphere of 5% CO2/95%. After 1 h media was exchanged with Assay Buffer (Zen-Bio) containing isoproterenol (1 nM) (added to all samples except untreated controls) and the test peptides. Cells were incubated for a further 3 hours at 37° C. in a humidified atmosphere of 5% CO2/95%. Free fatty acid concentrations in the media were determined using a Free Fatty Acid Assay Kit (Zen-Bio) according to the manufacturer's instructions using a plate reader (540 nm).
Absorbance values were corrected for untreated background and expressed relative to isoproterenol treated cells. Treatment with isoproterenol (1 nM) alone was used as the free fatty acid level stimulatory control. The relative standard deviation of the isoproterenol control was <10%. […] Free fatty acid levels for insulin (100 nM) treatment were <5% of the isoproterenol control value.

Molecule	Free Fatty Acid Levels in 3T3-L1 Adipocytes Expressed as a Percent of Isoproterenol Control: Percent of Control Value [%]
CC[C@H](C)[C@@H]1NC(=O)[C@H](Cc2ccc(O)cc2)NC(=O)CNC(=O)[C@H](CCSC)NC(=O)[C@H](CCC(=O)O)NC(=O)[C@@H](NC(=O)[C@H](Cc2c[nH]c3ccccc23)NC(=O)[C@H](CCCNC(=N)N)NC(=O)[C@@H](N)CCSC)CCC(=O)NCCCC[C@@H](C(=O)N[C@@H](CCCNC(=N)N)C(=O)N[C@@H](CCCCN)C(=O)N[C@@H](CC(C)C)C(=O)N[C@@H](CCCNC(=N)N)C(=O)O)NC(=O)[C@H](Cc2ccc(O)cc2)NC(=O)[C@H](Cc2ccccc2)NC1=O [compound 223] (HELM PEPTIDE1{M.R.W.E.E.M.G.Y.I.F.Y.K.R.K.L.R}$PEPTIDE1,PEPTIDE1,4:R3-12:R3$$$V2.0)	64.6
Ac-MRWQEMGYIFYPRKL-NH2 [compound 59]	92.2
H-MRWQEMGYIFYPRKLK-OH [compound 124]	68.9
Ac-MRWNEMGYIFYPRKLR-NH2 [compound 133]	87.5
H-MEWQEMGYIFYPRKLR-OH [compound 169]	49.2
CC[C@H](C)[C@@H]1NC(=O)[C@H](Cc2ccc(O)cc2)NC(=O)CNC(=O)[C@H](CCSC)NC(=O)[C@@H](NC(=O)[C@H](CCC(N)=O)NC(=O)[C@H](Cc2c[nH]c3ccccc23)NC(=O)[C@H](CCCNC(=N)N)NC(=O)[C@@H](N)CCSC)CCC(=O)NCCCC[C@@H](C(=O)N[C@@H](CCCNC(=N)N)C(=O)N[C@@H](CCCCN)C(=O)N[C@@H](CC(C)C)C(=O)N[C@@H](CCCNC(=N)N)C(=O)O)NC(=O)[C@H](Cc2ccc(O)cc2)NC(=O)[C@H](Cc2ccccc2)NC1=O [compound 224] (HELM PEPTIDE1{M.R.W.Q.E.M.G.Y.I.F.Y.K.R.K.L.R}$PEPTIDE1,PEPTIDE1,5:R3-12:R3$$$V2.0)	56.2
CC[C@H](C)[C@H](NC(=O)[C@H](Cc1ccc(O)cc1)NC(=O)CNC(=O)[C@H](CCSC)NC(=O)[C@H](CCC(=O)O)NC(=O)[C@H](CCC(N)=O)NC(=O)[C@H](Cc1c[nH]c2ccccc12)NC(=O)[C@H](CCCNC(=N)N)NC(=O)[C@@H](N)CCSC)C(=O)N[C@@H](Cc1ccccc1)C(=O)N[C@@H](Cc1ccc(O)cc1)C(=O)N[C@H](C)C(=O)N[C@@H](CCCNC(=N)N)C(=O)N[C@@H](CCCCN)C(=O)N[C@@H](CC(C)C)C(=O)N[C@@H](CCCNC(=N)N)C(=O)O [compound 147] (HELM PEPTIDE1{M.R.W.Q.E.M.G.Y.I.F.Y.[dA].R.K.L.R}$$$$V2.0)	60.9
CC[C@H](C)[C@H](NC(=O)[C@H](Cc1ccc(O)cc1)NC(=O)CNC(=O)[C@H](CCSC)NC(=O)[C@H](CCC(=O)O)NC(=O)[C@H](CCC(N)=O)NC(=O)[C@H](Cc1c[nH]c2ccccc12)NC(=O)[C@H](CCCNC(=N)N)NC(=O)[C@@H](N)CCSC)C(=O)N[C@@H](Cc1ccccc1)C(=O)N[C@@H](Cc1ccc(O)cc1)C(=O)N1CCC[C@H]1C(=O)N[C@@H](CCCNC(=N)N)C(=O)N[C@@H](CCCCN)C(=O)N[C@@H](CC(C)C)C(=O)N[C@H](C)C(=O)O [compound 151] (HELM PEPTIDE1{M.R.W.Q.E.M.G.Y.I.F.Y.P.R.K.L.[dA]}$$$$V2.0)	47.9
Ac-MRWQEMGYIFYPKKLR-NH2 [compound 129]	82.5
CC[C@H](C)[C@H](NC(=O)[C@H](Cc1ccc(O)cc1)NC(=O)CNC(=O)[C@H](CCC(=O)O)NC(=O)[C@H](CCC(=O)O)NC(=O)[C@H](CCC(N)=O)NC(=O)[C@H](Cc1c[nH]c2ccccc12)NC(=O)[C@H](CCCNC(=N)N)NC(=O)[C@@H](C)N)C(=O)N[C@@H](C)C(=O)N[C@@H](Cc1ccc(O)cc1)C(=O)N1CCC[C@H]1C(=O)N[C@@H](CCCNC(=N)N)C(=O)N[C@@H](CCCCN)C(=O)N[C@@H](CC(C)C)C(=O)N[C@@H](C)C(=O)O [compound 236] (HELM PEPTIDE1{[dA].R.W.Q.E.E.G.Y.I.A.Y.P.R.K.L.A}$$$$V2.0)	74.8
CC[C@H](C)[C@H](NC(=O)[C@H](Cc1ccc(O)cc1)NC(=O)CNC(=O)[C@H](CCSC)NC(=O)[C@H](CCC(=O)O)NC(=O)[C@H](CCC(N)=O)NC(=O)[C@H](Cc1c[nH]c2ccccc12)NC(=O)[C@H](CCCNC(=N)N)NC(=O)[C@H](CCSC)NC(C)=O)C(=O)N[C@@H](Cc1ccccc1)C(=O)N[C@@H](Cc1ccc(O)cc1)C(=O)N1CCC[C@H]1C(=O)N[C@@H](CCCNC(=N)N)C(=O)N[C@H](C)C(=O)N[C@@H](CC(C)C)C(=O)N[C@@H](CCCNC(=N)N)C(N)=O [compound 165] (HELM PEPTIDE1{[ac].M.R.W.Q.E.M.G.Y.I.F.Y.P.R.[dA].L.R.[am]}$$$$V2.0)	82.0
Ac-MKWQEMGYIFYPRKLR-NH2 [compound 128]	90.0
Ac-MRWQEMGYIFYPRALR-NH2 [compound 35]	31.3
H-ERWQEMGYIFYPRKLR-OH [compound 168]	52.2
Ac-MRWQEMGYIFYPRKLE-NH2 [compound 197]	84.6
Ac-MRWQEMGYIFEPRKLR-NH2 [compound 192]	66.8
CC[C@H](C)[C@H](NC(=O)[C@H](Cc1ccc(O)cc1)NC(=O)CNC(=O)[C@H](CCC(=O)O)NC(=O)[C@H](CCC(=O)O)NC(=O)[C@H](CCC(N)=O)NC(=O)[C@H](Cc1c[nH]c2ccccc12)NC(=O)[C@H](CCCNC(=N)N)NC(=O)[C@@H](C)N)C(=O)N[C@@H](Cc1ccccc1)C(=O)N[C@@H](Cc1ccc(O)cc1)C(=O)N1CCC[C@H]1C(=O)N[C@@H](CCCNC(=N)N)C(=O)O [compound 232] (HELM PEPTIDE1{[dA].R.W.Q.E.E.G.Y.I.F.Y.P.R}$$$$V2.0)	46.5
H-MRWEEMGYIFYPRKLR-OH [compound 171]	45.9
CC[C@H](C)[C@@H]1NC(=O)[C@H](Cc2ccc(O)cc2)NC(=O)CNC(=O)[C@@H](NC(=O)[C@H](CCC(=O)O)NC(=O)[C@H](CCC(N)=O)NC(=O)[C@H](Cc2c[nH]c3ccccc23)NC(=O)[C@H](CCCNC(=N)N)NC(=O)[C@@H](N)CCSC)CSSC[C@@H](C(=O)N[C@@H](CCCNC(=N)N)C(=O)N[C@@H](CCCCN)C(=O)N[C@@H](CC(C)C)C(=O)N[C@@H](CCCNC(=N)N)C(=O)O)NC(=O)[C@H](Cc2ccc(O)cc2)NC(=O)[C@H](Cc2ccccc2)NC1=O [compound 220] (HELM PEPTIDE1{M.R.W.Q.E.C.G.Y.I.F.Y.C.R.K.L.R}$PEPTIDE1,PEPTIDE1,6:R3-12:R3$$$V2.0)	70.5
Ac-MRWEEMGYIFYPRKLR-NH2 [compound 186]	102.1
Ac-MRWQEMGEIFYPRKLR-NH2 [compound 189]	87.6
CC[C@H](C)[C@H](NC(=O)[C@H](Cc1ccc(O)cc1)NC(=O)CNC(=O)[C@H](CCSC)NC(=O)[C@H](CCC(=O)O)NC(=O)[C@H](CCC(N)=O)NC(=O)[C@H](Cc1c[nH]c2ccccc12)NC(=O)[C@@H](C)NC(=O)[C@H](CCSC)NC(C)=O)C(=O)N[C@@H](Cc1ccccc1)C(=O)N[C@@H](Cc1ccc(O)cc1)C(=O)N1CCC[C@H]1C(=O)N[C@@H](CCCNC(=N)N)C(=O)N[C@@H](CCCCN)C(=O)N[C@@H](CC(C)C)C(=O)N[C@@H](CCCNC(=N)N)C(N)=O [compound 153] (HELM PEPTIDE1{[ac].M.[dA].W.Q.E.M.G.Y.I.F.Y.P.R.K.L.R.[am]}$$$$V2.0)	93.1
Ac-MRWQEMGYIFYPRRLR-NH2 [compound 131]	78.1
H-MRWQDMGYIFYPRRLR-OH [compound 126]	55.6
